# Data: patent US20230085307A1, “PYRIDAZINONE COMPOUND AND HERBICIDE” (NISSAN CHEMICAL CORPORATION, priority 2019, published 2023)
# Tests used:
# [1] = system: late watergrass; test: Test Example 2: herbicidal activity, application during weed generation under submerged conditions (Table 17, symbol A); assay type: in vivo, late watergrass (Echinochloa oryzicola); conditions: AAH 320 g/ha; application during weed generation, submerged conditions
# Outline: (§1)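 Mixed weed seedlings in alluvial soil under a 4 cm water layer, greenhouse-grown at 25–30° C. Compound given as a diluted emulsion into the floodwater at the 1–2 leaf stage; response graded after three weeks.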
# [2] = system: Japanese bulrush; test: Test Example 2: herbicidal activity, application during weed generation under submerged conditions (Table 17, symbol B); assay type: in vivo, Japanese bulrush (Schoenoplectus juncoides); conditions: AAH 320 g/ha; application during weed generation, submerged conditions
# Outline: as §1
# [3] = system: oval-leafed pondweed; test: Test Example 2: herbicidal activity, application during weed generation under submerged conditions (Table 17, symbol C); assay type: in vivo, oval-leafed pondweed (Monochoria vaginalis); conditions: AAH 320 g/ha; application during weed generation, submerged conditions
# Outline: as §1
# [4] = system: barnyard grass; test: Test Example 3: herbicidal effect by foliage application, Wagner pot (Table 18, symbol H); assay type: in vivo, barnyard grass (Echinochloa crus-galli)
# Outline: (§2)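 Plants were sown in alluvial soil held under 0.1–0.5 cm standing water and grown 14 days in a greenhouse at 25–30 °C. An emulsifiable formulation, water-diluted to the set dose, was then sprayed onto the foliage, and effects were scored three weeks later using previously defined criteria.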
# [5] = system: Chinese sprangletop; test: Test Example 3: herbicidal effect by foliage application, Wagner pot (Table 18, symbol D); assay type: in vivo, chinese sprangletop (Leptochloa chinensis)
# Outline: as §2
# [6] = system: rice flat sedge; test: Test Example 3: herbicidal effect by foliage application, Wagner pot (Table 18, symbol E); assay type: in vivo, rice flat sedge (Cyperus iria)
# Outline: as §2
# [7] = system: southern crabgrass; test: Test Example 4: herbicidal effect by soil treatment (Table 19, symbol F); assay type: in vivo, southern crabgrass (Digitaria ciliaris); conditions: amount of applied herbicide 320 g/ha
# Outline: (§3)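 Step 1: sow seeds in sterilized diluvial soil, cover ~1.5 cm. Step 2: spray diluted emulsion onto soil surface at predetermined rate. Step 3: greenhouse, 25–30° C, three weeks. Step 4: grade effect on each plant by earlier criteria.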
# [8] = system: green foxtail; test: Test Example 4: herbicidal effect by soil treatment (Table 19, symbol G); assay type: in vivo, green foxtail (Setaria viridis); conditions: amount of applied herbicide 320 g/ha
# Outline: as §3
# [9] = system: barnyard grass; test: Test Example 4: herbicidal effect by soil treatment (Table 19, symbol H); assay type: in vivo, barnyard grass (Echinochloa crus-galli); conditions: amount of applied herbicide 320 g/ha
# Outline: as §3
# [10] = system: wild oat; test: Test Example 4: herbicidal effect by soil treatment (Table 19, symbol I); assay type: in vivo, wild oat (Avena fatua); conditions: amount of applied herbicide 320 g/ha
# Outline: as §3
# [11] = system: blackgrass; test: Test Example 4: herbicidal effect by soil treatment (Table 19, symbol J); assay type: in vivo, blackgrass (Alopecurus myosuroides); conditions: amount of applied herbicide 320 g/ha
# Outline: as §3
# [12] = system: Italian ryegrass; test: Test Example 4: herbicidal effect by soil treatment (Table 19, symbol K); assay type: in vivo, Italian ryegrass (Lolium multiflorum); conditions: amount of applied herbicide 320 g/ha
# Outline: as §3
# [13] = system: windgrass; test: Test Example 4: herbicidal effect by soil treatment (Table 19, symbol L); assay type: in vivo, windgrass (Apera spica-venti); conditions: amount of applied herbicide 320 g/ha
# Outline: as §3
# [14] = system: velvetleaf; test: Test Example 4: herbicidal effect by soil treatment (Table 19, symbol M); assay type: in vivo, velvetleaf (Abutilon theophrasti); conditions: amount of applied herbicide 320 g/ha
# Outline: as §3
# [15] = system: redroot pigweed; test: Test Example 4: herbicidal effect by soil treatment (Table 19, symbol N); assay type: in vivo, redroot pigweed (Amaranthus retroflexus); conditions: amount of applied herbicide 320 g/ha
# Outline: as §3
# [16] = system: lambsquarters; test: Test Example 4: herbicidal effect by soil treatment (Table 19, symbol O); assay type: in vivo, lambsquarters (Chenopodium album); conditions: amount of applied herbicide 320 g/ha
# Outline: as §3
# [17] = system: chickweed; test: Test Example 4: herbicidal effect by soil treatment (Table 19, symbol P); assay type: in vivo, common chickweed (Stellaria media); conditions: amount of applied herbicide 320 g/ha
# Outline: as §3
# [18] = system: persian speedwell; test: Test Example 4: herbicidal effect by soil treatment (Table 19, symbol R); assay type: in vivo, Persian speedwell (Veronica persica); conditions: amount of applied herbicide 320 g/ha
# Outline: as §3
# [19] = system: southern crabgrass; test: Test Example 5: herbicidal effect by foliage application, plastic box (Table 20, symbol F); assay type: in vivo, southern crabgrass (Digitaria ciliaris); conditions: 320 g/ha
# Outline: (§4)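 Foliar spray test: emulsion formulation diluted in water to a set application rate, sprayed onto 14-day-old plants raised in diluvial soil at 25° C to 30° C under glass. Both herbicidal effect and crop effect rated visually three weeks later.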
# [20] = system: green foxtail; test: Test Example 5: herbicidal effect by foliage application, plastic box (Table 20, symbol G); assay type: in vivo, green foxtail (Setaria viridis); conditions: 320 g/ha
# Outline: as §4
# [21] = system: barnyard grass; test: Test Example 5: herbicidal effect by foliage application, plastic box (Table 20, symbol H); assay type: in vivo, barnyard grass (Echinochloa crus-galli); conditions: 320 g/ha
# Outline: as §4
# [22] = system: wild oat; test: Test Example 5: herbicidal effect by foliage application, plastic box (Table 20, symbol I); assay type: in vivo, wild oat (Avena fatua); conditions: 320 g/ha
# Outline: as §4
# [23] = system: blackgrass; test: Test Example 5: herbicidal effect by foliage application, plastic box (Table 20, symbol J); assay type: in vivo, blackgrass (Alopecurus myosuroides); conditions: 320 g/ha
# Outline: as §4
# [24] = system: Italian ryegrass; test: Test Example 5: herbicidal effect by foliage application, plastic box (Table 20, symbol K); assay type: in vivo, Italian ryegrass (Lolium multiflorum); conditions: 320 g/ha
# Outline: as §4
# [25] = system: windgrass; test: Test Example 5: herbicidal effect by foliage application, plastic box (Table 20, symbol L); assay type: in vivo, windgrass (Apera spica-venti); conditions: 320 g/ha
# Outline: as §4
# [26] = system: velvetleaf; test: Test Example 5: herbicidal effect by foliage application, plastic box (Table 20, symbol M); assay type: in vivo, velvetleaf (Abutilon theophrasti); conditions: 320 g/ha
# Outline: as §4
# [27] = system: redroot pigweed; test: Test Example 5: herbicidal effect by foliage application, plastic box (Table 20, symbol N); assay type: in vivo, redroot pigweed (Amaranthus retroflexus); conditions: 320 g/ha
# Outline: as §4
# [28] = system: lambsquarters; test: Test Example 5: herbicidal effect by foliage application, plastic box (Table 20, symbol O); assay type: in vivo, lambsquarters (Chenopodium album); conditions: 320 g/ha
# Outline: as §4
# [29] = system: chickweed; test: Test Example 5: herbicidal effect by foliage application, plastic box (Table 20, symbol P); assay type: in vivo, common chickweed (Stellaria media); conditions: 320 g/ha
# Outline: as §4
# [30] = system: persian speedwell; test: Test Example 5: herbicidal effect by foliage application, plastic box (Table 20, symbol R); assay type: in vivo, Persian speedwell (Veronica persica); conditions: 320 g/ha
# Outline: as §4
# [31] = amount of applied herbicide 320 g/ha
# [32] = foliage application, three weeks after application
# [33] = foliage application after 14-day growth, evaluated three weeks after application
smiles,measurement,setting,value
CCc1nn(C)c(=O)c(-c2c(-c3ccc(F)cc3)sc3ccc(F)cc23)c1O [2-406],"herbicidal effect rating, A: late watergrass",[1],2 (Herbicidal rate of 20% or more and less than 40%)
same,"herbicidal effect rating, B: Japanese bulrush",[2],0 (Herbicidal rate of 5% or less (almost no effect))
same,"herbicidal effect rating, C: oval-leafed pondweed",[3],0 (Herbicidal rate of 5% or less (almost no effect))
same,herbicidal effect on H: barnyard grass,[4]; [31],4 (Herbicidal rate of 70% or more and less than 90%)
same,herbicidal effect on D: Chinese sprangletop,[5]; [31],4 (Herbicidal rate of 70% or more and less than 90%)
same,herbicidal effect on E: rice flat sedge,[6]; [31],5 (Herbicidal rate of 90% or more (almost completely withered))
same,"herbicidal effect, F: southern crabgrass",[7],2 (Herbicidal rate of 20% or more and less than 40%)
same,"herbicidal effect, G: green foxtail",[8],4 (Herbicidal rate of 70% or more and less than 90%)
same,"herbicidal effect, H: barnyard grass",[9],4 (Herbicidal rate of 70% or more and less than 90%)
same,"herbicidal effect, I: wild oat",[10],0 (Herbicidal rate of 5% or less (almost no effect))
same,"herbicidal effect, J: blackgrass",[11],0 (Herbicidal rate of 5% or less (almost no effect))
same,"herbicidal effect, K: Italian ryegrass",[12],3 (Herbicidal rate of 40% or more and less than 70%)
same,"herbicidal effect, L: windgrass",[13],0 (Herbicidal rate of 5% or less (almost no effect))
same,"herbicidal effect, M: velvetleaf",[14],3 (Herbicidal rate of 40% or more and less than 70%)
same,"herbicidal effect, N: redroot pigweed",[15],4 (Herbicidal rate of 70% or more and less than 90%)
same,"herbicidal effect, O: lambsquarters",[16],3 (Herbicidal rate of 40% or more and less than 70%)
same,"herbicidal effect, P: chickweed",[17],3 (Herbicidal rate of 40% or more and less than 70%)
same,"herbicidal effect, R: persian speedwell",[18],0 (Herbicidal rate of 5% or less (almost no effect))
same,"F: southern crabgrass, herbicidal effect grade",[19]; [32],3 (Herbicidal rate of 40% or more and less than 70%)
same,"G: green foxtail, herbicidal effect grade",[20]; [32],5 (Herbicidal rate of 90% or more (almost completely withered))
same,"H: barnyard grass, herbicidal effect grade",[21]; [32],4 (Herbicidal rate of 70% or more and less than 90%)
same,"I: wild oat, herbicidal effect grade",[22]; [32],0 (Herbicidal rate of 5% or less (almost no effect))
same,"J: blackgrass, herbicidal effect grade",[23]; [32],3 (Herbicidal rate of 40% or more and less than 70%)
same,"K: Italian ryegrass, herbicidal effect grade",[24]; [32],4 (Herbicidal rate of 70% or more and less than 90%)
same,"L: windgrass, herbicidal effect grade",[25]; [32],4 (Herbicidal rate of 70% or more and less than 90%)
same,"M: velvetleaf, herbicidal effect grade",[26]; [32],5 (Herbicidal rate of 90% or more (almost completely withered))
same,"N: redroot pigweed, herbicidal effect grade",[27]; [32],5 (Herbicidal rate of 90% or more (almost completely withered))
same,"O: lambsquarters, herbicidal effect grade",[28]; [32],4 (Herbicidal rate of 70% or more and less than 90%)
same,"P: chickweed, herbicidal effect grade",[29]; [32],5 (Herbicidal rate of 90% or more (almost completely withered))
same,"R: persian speedwell, herbicidal effect grade",[30]; [32],5 (Herbicidal rate of 90% or more (almost completely withered))
CCCC(=O)Oc1c(C)nn(C)c(=O)c1-c1c(-c2ccc(C(F)(F)F)cc2)sc2c(Cl)cccc12 [4-030],"herbicidal effect rating, A: late watergrass",[1],3 (Herbicidal rate of 40% or more and less than 70%)
same,"herbicidal effect rating, B: Japanese bulrush",[2],3 (Herbicidal rate of 40% or more and less than 70%)
same,"herbicidal effect rating, C: oval-leafed pondweed",[3],3 (Herbicidal rate of 40% or more and less than 70%)
same,herbicidal effect on barnyard grass (H),[4]; 320 g/ha,3 (Herbicidal rate of 40% or more and less than 70%)
same,herbicidal effect on Chinese sprangletop (D),[5]; 320 g/ha,5 (Herbicidal rate of 90% or more (almost completely withered))
same,herbicidal effect on rice flat sedge (E),[6]; 320 g/ha,3 (Herbicidal rate of 40% or more and less than 70%)
same,"Herbicidal effect by soil treatment, F: southern crabgrass",[7],0 (Herbicidal rate of 5% or less (almost no effect))
same,"Herbicidal effect by soil treatment, G: green foxtail",[8],0 (Herbicidal rate of 5% or less (almost no effect))
same,"Herbicidal effect by soil treatment, H: barnyard grass",[9],0 (Herbicidal rate of 5% or less (almost no effect))
same,"Herbicidal effect by soil treatment, I: wild oat",[10],0 (Herbicidal rate of 5% or less (almost no effect))
same,"Herbicidal effect by soil treatment, J: blackgrass",[11],0 (Herbicidal rate of 5% or less (almost no effect))
same,"Herbicidal effect by soil treatment, K: Italian ryegrass",[12],0 (Herbicidal rate of 5% or less (almost no effect))
same,"Herbicidal effect by soil treatment, L: windgrass",[13],0 (Herbicidal rate of 5% or less (almost no effect))
same,"Herbicidal effect by soil treatment, M: velvetleaf",[14],0 (Herbicidal rate of 5% or less (almost no effect))
same,"Herbicidal effect by soil treatment, N: redroot pigweed",[15],0 (Herbicidal rate of 5% or less (almost no effect))
same,"Herbicidal effect by soil treatment, O: lambsquarters",[16],0 (Herbicidal rate of 5% or less (almost no effect))
same,"Herbicidal effect by soil treatment, P: chickweed",[17],3 (Herbicidal rate of 40% or more and less than 70%)
same,"Herbicidal effect by soil treatment, R: persian speedwell",[18],0 (Herbicidal rate of 5% or less (almost no effect))
same,herbicidal effect on F: southern crabgrass (evaluation grade 0-5),[19]; [33],0 (Herbicidal rate of 5% or less (almost no effect))
same,herbicidal effect on G: green foxtail (evaluation grade 0-5),[20]; [33],0 (Herbicidal rate of 5% or less (almost no effect))
same,herbicidal effect on H: barnyard grass (evaluation grade 0-5),[21]; [33],0 (Herbicidal rate of 5% or less (almost no effect))
same,herbicidal effect on I: wild oat (evaluation grade 0-5),[22]; [33],3 (Herbicidal rate of 40% or more and less than 70%)
same,herbicidal effect on J: blackgrass (evaluation grade 0-5),[23]; [33],0 (Herbicidal rate of 5% or less (almost no effect))
same,herbicidal effect on K: Italian ryegrass (evaluation grade 0-5),[24]; [33],0 (Herbicidal rate of 5% or less (almost no effect))
same,herbicidal effect on L: windgrass (evaluation grade 0-5),[25]; [33],5 (Herbicidal rate of 90% or more (almost completely withered))
same,herbicidal effect on M: velvetleaf (evaluation grade 0-5),[26]; [33],0 (Herbicidal rate of 5% or less (almost no effect))
same,herbicidal effect on N: redroot pigweed (evaluation grade 0-5),[27]; [33],0 (Herbicidal rate of 5% or less (almost no effect))
same,herbicidal effect on O: lambsquarters (evaluation grade 0-5),[28]; [33],0 (Herbicidal rate of 5% or less (almost no effect))
same,herbicidal effect on P: chickweed (evaluation grade 0-5),[29]; [33],5 (Herbicidal rate of 90% or more (almost completely withered))
same,herbicidal effect on R: persian speedwell (evaluation grade 0-5),[30]; [33],5 (Herbicidal rate of 90% or more (almost completely withered))
